{"source": "patent US4581366A", "about": "“Aldose reductase inhibition by spiro indoline derivatives” (Imperial Chemical Industries PLC, priority 1983, dated 1986)", "key": {"aldose reductase [1]": {"molecular_target": "T1, aldose reductase (Bos taurus, UniProt P16116)", "T1 construct": "partially purified aldose reductase is isolated in known manner from bovine lenses; from tissue; host or cells: bovine lens", "test": "in vitro inhibition of partially purified aldose reductase from bovine lenses (reduction of glucose to sorbitol, spectrophotometric)", "assay_type": "biochemical", "details": "read-out: IC50 (concentration necessary to inhibit to the extent of 50% the enzyme's ability to reduce glucose to sorbitol)", "experimental": "Thus, partially purified aldose reductase is isolated in known manner from bovine lenses. The percentage inhibition of this enzyme's ability in vitro to reduce aldoses to polyhydric alcohols, and particularly to reduce glucose to sorbitol, caused by a test compound is then determined using standard spectrophotometric methods.\n(§1) In the above in vivo test, an effective dose (ED) may be defined as the oral dose at which the residual sorbitol level in the sciatic nerve is reduced to a level similar to that in the sciatic nerve of normal, undosed rats. In this test the novel compound of formula I has an ED of approximately 1.76 mg/kg. as the racemic form and of approximately 0.62 mg/kg. as the dextrorotatory, optically active form."}, "aldose reductase [2]": {"tested_on": "aldose reductase", "test": "in vivo aldose reductase inhibition in streptozotocin-diabetic rats (residual sorbitol in sciatic nerve)", "set-up": "species or system rat", "details": "dosed daily for 2-5 days, 2-4 hours after final dose", "experimental": "Thus, rats are made diabetic (as evidenced by severe glucosuria being present) by dosing with streptozotocin. The animals are then dosed daily with the test compound for 2-5 days. The animals are then killed 2-4 hours after the final dose and the eye lenses and/or sciatic nerves are removed. After a standard work-up procedure the residual sorbitol levels in each tissue are determined by gas liquid chromatography after conversion to the polytrimethysilyl derivatives. Inhibition of aldose reductase in vivo is then assessed by comparing the residual sorbitol levels in tissues from the dosed diabetic group of rats with those of an undosed group of diabetic rats and an undosed, normal group of rats.\nas §1"}}}
{"compound": "O=C1NC(=O)C2(N1)C(=O)N(Cc1ccc(Br)cc1F)c1c(Cl)cccc12", "note": "(racemic) [compound of formula I, racemic form, (±)-1'-(4-bromo-2-fluorobenzyl)-7'-chloro-spiro[imidazolidine-4,3'-indoline]-2,2',5-trione]", "values": [{"measurement": "IC50", "setting": "aldose reductase [1]", "result": "~24", "unit": "nM"}, {"measurement": "effective dose (ED): oral dose at which the residual sorbitol level in the sciatic nerve is reduced to a level similar to that of normal, undosed rats", "setting": "aldose reductase [2]", "result": "approximately 1.76 mg/kg"}]}
{"compound": "O=C1NC(=O)C2(N1)C(=O)N(Cc1ccc(Br)cc1F)c1c(Cl)cccc12", "note": "(single isomer, unassigned; (+)) [(+)-1'-(4-bromo-2-fluorobenzyl)-7'-chloro-spiro[imidazolidine-4,3'-indoline]-2,2',5-trione]", "values": [{"measurement": "IC50", "setting": "aldose reductase [1]", "result": "~9.8", "unit": "nM"}, {"measurement": "effective dose (ED): oral dose at which the residual sorbitol level in the sciatic nerve is reduced to a level similar to that of normal, undosed rats", "setting": "aldose reductase [2]", "result": "approximately 0.62 mg/kg"}]}
